The record followed here is article PMC8933493, “Mechanism and biomass association of glucuronoyl esterase: an α/β hydrolase with potential in biomass conversion” (Nature Communications, 2022).

Assay [1] has as its target T1, OtCE15A (Opitutus terrae, UniProt B1ZMF4).
T1 construct: gene Oter_0116; His6-tag; no CBM; E. coli BL21(DE3); IMAC and size exclusion; active-site Ser267, Arg268, Glu290, Asp356, His408
Nature of the assay: continuous coupled assay, K-URONIC kit (Megazyme). Type of assay: biochemical. The conditions noted are these: duplicate, at least 8 substrate concentrations. The text has this:
continuous coupled assay, K-URONIC kit (Megazyme) on OtCE15A

Assay [2] addresses T1, OtCE15A. As to the kind of experiment: continuous coupled assay, K-URONIC kit; Arrhenius analysis of kcat. Type of assay: biochemical. The conditions noted are these: 20 to 40 °C in 5 °C steps.
The target in assay [3] is T2, OtCE15A (Opitutus terrae, UniProt B1ZMF4, R268A).
T2 construct: gene Oter_0116; His6-tag; no CBM; E. coli BL21(DE3); IMAC and size exclusion; active-site Ser267, Arg268, Glu290, Asp356, His408
Nature of the assay: X-ray crystal structure after […] s soak in saturated BnzGlcA. Type of assay: binding. As to conditions: covalent; glucuronoyl acyl-enzyme intermediate formed from the soaked substrate; pH 6.5 crystals, 10% DMSO.

T1 sequence (B1ZMF4 entry or part of it): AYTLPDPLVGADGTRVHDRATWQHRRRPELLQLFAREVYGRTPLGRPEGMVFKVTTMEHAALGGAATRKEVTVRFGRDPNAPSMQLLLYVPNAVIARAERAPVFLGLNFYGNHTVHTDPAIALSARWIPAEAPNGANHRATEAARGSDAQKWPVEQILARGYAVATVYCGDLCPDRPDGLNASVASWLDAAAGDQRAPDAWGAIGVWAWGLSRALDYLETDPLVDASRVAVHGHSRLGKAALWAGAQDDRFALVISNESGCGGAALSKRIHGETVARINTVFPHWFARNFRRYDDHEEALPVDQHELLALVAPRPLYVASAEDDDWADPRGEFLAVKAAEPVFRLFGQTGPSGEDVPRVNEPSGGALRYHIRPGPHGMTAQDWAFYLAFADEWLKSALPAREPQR
T2 sequence (B1ZMF4 entry or part of it R268A): as the sequence (B1ZMF4 entry or part of it) above, with R236A counted along it

Take `COC(=O)[C@H]1OC(O)[C@H](O)[C@@H](O)[C@@H]1O` (stereo partly drawn) [MeGlcA, GlcA methyl ester]: the Km (in general, the substrate concentration at which the rate is half of its maximum) in assay [1] worked out at 2770 ± 150 µM.

Consider `O=C(OCc1ccccc1)[C@H]1OC(O)[C@H](O)[C@@H](O)[C@@H]1O` (stereo partly drawn) [BnzGlcA, benzyl GlcA], for which the “continuous coupled assay, K-URONIC kit; Arrhenius analysis of kcat” value in assay [2] is listed as “small substrate benzyl GlcA (BnzGlcA) by determining kcat at different temperatures”. Further, the “X-ray crystal structure after 30 s soak in saturated BnzGlcA” value in assay [3] is “after soaking with the BnzGlcA substrate clearly shows the formation of a CI”.
